From patent US8129327B2, “Packaging for high moisture bar soap” (The Procter & Gamble Company, priority 2006, dated 2012)

What was measured:
penicillium chrysogenum = test: inhibition of mold growth on paperboard package containing high moisture bar soap; conditions: fungicide-treated paperboard package containing high moisture bar soap
From the text: (§1) The present invention further relates to a method of inhibiting the growth of mold, especially certain species of mold such as aspergillus sydowii and/or penicillium chrysogenum, that can grow on a paperboard package containing a high moisture bar soap composition.
(§2) Such a fungicide material is commercially available from Intace S.A. under the tradename INTACE B-6773.

aspergillus sydowii = test: as above; conditions: fungicide-treated paperboard package containing high moisture bar soap
From the text: as §1, §2

COC(=O)Nc1nc2ccccc2[nH]1 [carbendazim]
inhibition of the growth of mold on paperboard packaging (penicillium chrysogenum): typically resistant
inhibition of the growth of mold on paperboard packaging (aspergillus sydowii): typically resistant
